These results are taken from patent US9486449B2, “Cancer therapy” (priority 2007, dated 2016).

“And” between values parts separate entries of the source, which are not always exact repeats. Equal entries are not always repeated. Structures can show the parent of a compound that is named as a salt.

By Ki is commonly meant the equilibrium dissociation constant of an inhibitor or competing ligand from its target. In general, EC50 refers to the concentration that produces a half-maximal response.

In one series the test system is α-tubulin with γ-tubulin. The series can be described thus: Co-immunoprecipitation of α-tubulin with γ-tubulin in cancer cells. Format: cell-based.
Series [1] addresses T1, binding of γ-tubulin to kinesin-14/HSET (Homo sapiens, UniProt Q9BW19).
T1 sequence (Q9BW19 1-673): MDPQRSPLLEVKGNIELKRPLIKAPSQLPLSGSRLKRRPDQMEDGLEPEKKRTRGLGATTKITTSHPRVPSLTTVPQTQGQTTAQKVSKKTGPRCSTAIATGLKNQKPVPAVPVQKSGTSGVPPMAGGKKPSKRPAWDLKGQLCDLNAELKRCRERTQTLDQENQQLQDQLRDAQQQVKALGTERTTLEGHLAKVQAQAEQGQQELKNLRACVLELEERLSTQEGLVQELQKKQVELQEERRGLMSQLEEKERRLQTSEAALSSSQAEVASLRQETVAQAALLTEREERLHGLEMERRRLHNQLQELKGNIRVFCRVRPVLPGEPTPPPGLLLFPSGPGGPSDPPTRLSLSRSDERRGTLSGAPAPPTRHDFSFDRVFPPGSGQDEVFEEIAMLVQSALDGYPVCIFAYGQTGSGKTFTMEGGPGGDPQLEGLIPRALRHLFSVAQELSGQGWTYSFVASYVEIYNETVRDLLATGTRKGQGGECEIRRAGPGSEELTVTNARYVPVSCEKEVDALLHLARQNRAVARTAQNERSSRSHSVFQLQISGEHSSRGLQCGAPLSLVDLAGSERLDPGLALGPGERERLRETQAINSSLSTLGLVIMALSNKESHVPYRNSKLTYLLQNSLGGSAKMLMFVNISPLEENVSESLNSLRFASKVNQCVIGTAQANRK
The series can be described thus: Co-IP of kinesin-14/HSET with γ-tubulin in MDA-MB-231 cells. Format: cell-based. To be noted: 48 hours, PJ-34 20 μM, Tiq-A 100 μM, Phen(6) 50 μM. An excerpt:
Thus, PJ-34, Tiq-A and Phen interfered with the co-immunoprecipitation of HSET with γ-tubulin.

A further series concerns MCF-7 brca1+/+ cells. To be noted: 10 μM, 10 consecutive days; cited from earlier work.
The next series concerns the target PARP-1 (Homo sapiens, UniProt P09874). To be noted: cited from earlier work; for EC50: read-out: EC50 for PARP1 inhibition.
The subject of series [2] is CAPANI cells (which are deficient in brca2). To be noted: cited from earlier work.
The subject of series [3] is MDA-MB-231 xenotransplants. The series can be described thus: MDA-MB-231 xenotransplants in nude mice, PJ-34 intra-peritoneal. Format: in vivo, mouse. To be noted: 50 mg/kg PJ-34 i.p. daily for 14 days, started at palpable tumors; individual treated mice (untreated 750 and 850); HCl. Here is the method: In vivo experiments were carried out in nude female mice (nu/nu) injected subcutaneously with MDA-MB-231 cells (FIG. 32). […] About 10^6 cells were injected in 100 μl of MEM (Gibco, Rhenium, Jerusalem Israel) and 100 μl of Matrigel Basement Membrane Matrix (Becton Dickinson, Bedford, Mass., USA; In Israel, Bactolab Diagnostics). Two weeks after injection with MDA-MB-231 cells, palpable (50-80 mm^3) tumors developed in all the female nude mice. One pair of mice remained un-treated. […] Tumors' size was measured every day in all the mice (both treated and untreated). The treated mice were photographed on the first day and on the last day of treatment. Tumor sizes were 750 mm^3 and 850 mm^3 in the untreated mice, versus 130 mm^3 and 150 mm^3 in the treated mice.

Series [4] has as its system extra-centrosomes de-clustering in human cancer cells. The series can be described thus: Extra-centrosomes de-clustering. Format: cell-based.
Series [5] in a line: Tolerability of slow-release PJ-34 in nude mice. Format: in vivo. Here is the method:
. In vivo experiments were carried out in nude female mice (nu/nu) injected subcutaneously with MCF-7 or MDA-MB-231 cells (FIG. 15). […]. In the control nude mice, pumps contained only PBS, or pumps were not implanted. Each mouse was injected subcutaneously with approximately 10^7 MCF-7 or MDA-MB-231 cells dispersed in Matrigel. Tumors developed within 6 to 7 weeks in the control mice injected with MCF-7 cells and within 10 days in the control mice injected with MDA231 cells. One mouse died 3 weeks after being injected with MDA-MB-231 cells. […]

Series [6] deals with MDA-MB-231 xenotransplants. In words: MDA-MB-231 xenotransplants in nude mice, PJ-34 by subcutaneous osmotic pump. Format: in vivo, mouse. To be noted: PJ-34 treated, tumor-free mice. On the procedure:
Xenotransplants were developed in female CD-1 nu/nu 5 to 6 weeks old. MCF-7 and MDA 231 cells were injected subcutaneously, about 10^7 MCF-7 or MDA231 cells in 150 μl of PBS and 150 μl of Martigel Basement Membrane Matrix Becton Dickinson, Bedford, Mass., USA; In Israel Bactolab Diagnostics). In mice treated with PJ-34, injection was adjacent to subcutaneous osmotic pumps dripping PJ-34 by a slow release. The mice were maintained under specific pathogen-free conditions with access to mouse chow and water ad libitum. […]. Subcutaneous implantation of these pumps was performed before injection by a veterinarian (Dr. Kastel David). All the experiments with nude mice conform to the Guide for the Care and Use of Laboratory Animals published by the NIH (publication No. 85-23, revised 1996). Approval was granted by the Israeli Ministry of Health ethics review board in the Tel-AvivUniversity (M08033).
In vivo experiments were carried out in nude female mice (nu/nu) injected subcutaneously with MCF-7 or MDA-MB-231 cells (FIG. 15). […]. In the control nude mice, pumps contained only PBS, or pumps were not implanted. Each mouse was injected subcutaneously with approximately 10^7 MCF-7 or MDA-MB-231 cells dispersed in Matrigel. Tumors developed within 6 to 7 weeks in the control mice injected with MCF-7 cells and within 10 days in the control mice injected with MDA231 cells. […]

The subject of a further series is U-87 Glioblastoma cells. In words: Viability of U-87 glioblastoma cells (FACS). Format: cell-based, human. To be noted: 0.5-30 μM, single application; 72 and 96 h (PJ-34), 96 h (Phen, Tiq-A). On the procedure: The malignant U-87 Glioblastoma cells were incubated with these molecules applied once 24 hours after seeding. Cell viability was measured by FACS. The results of 3 different experiments carried in duplicates are presented.

Series [7] deals with MCF-7 breast cancer cells. In words: Survival of MCF-7 cells after single application (cell count, microscopy). Format: cell-based, human. To be noted: for MCF-7 survival: 48 to 72 hours, 10 μM PJ-34, Tiq-A 100 μM, Phen 50 μM; for killing of MCF-7 cells: Example 7, single application 24 h after seeding, Tiq-A 50/100 μM 72 h, Phen 25 μM 48 h / 50 μM 72 h. Here is the method:
Cells were cultured in 6-wells multi-dish plates (Nunc Denmark). MCF-7 and MDA231 cells were cultured in 6-wells multi-dish plates (Nunc Denmark). MCF-7 and MDA231 cells were maintained in a medium containing DMEM (cat #01055-1A), 10% Horse serum (cat #04-124-1A), 1% L-Glutamine (cat #03-020-1B), and 1% Pen-Strep Ampho (cat #03-033-1B) (Gibco, Invitrogene, purchased from Rhenium, Jerusalem 91035 Israel.
MCF-7 cells were seeded (about 50,000/well) in 6-well plates. […]. […] […].
The effect of PARP inhibitors on MCF-7 and MDA-MB-231 human breast cancer cells was examined (cells were seeded in about 500,000 cells/[…] well in six-well plates). […]. The damage was irreversible. […]. […] […].

The subject of series [8] is MDA-MB-231 breast cancer cells. In words: Survival of MDA-MB-231 cells after single application.
Text: Each value is an average value of three measurements obtained in three different experiments.
A further series has as its system cardiomyocytes. The series can be described thus: Effect on quiescent cells: cardiomyocytes. Format: cell-based. To be noted: 10 to 30 μM PJ-34, 100 μM Tiq-A, 50 μM Phen.
A further series has as its system brain cortical neurons. In words: Effect on quiescent cells: brain cortical neurons. Format: cell-based. To be noted: 10 to 30 μM PJ-34, 100 μM Tiq-A, 50 μM Phen.
Series [9] deals with HCC1937 (triple negative, BRCA deficient) human breast cancer cells. In words: Combination of MEK and PARP inhibitors on HCC1937 cells. To be noted: 48 hours; PJ-34 5 or 10 μM or Tiq-A 50 μM with 5 μM U0126. Format: cell-based.
The target in a further series is T2, HSET (Homo sapiens, UniProt Q9BW19).
T2 sequence (Q9BW19 1-673): T1 sequence (Q9BW19 1-673)
In words: Post translational modification of HSET in MDA-MB-231 cells (pI shift, 2-D gel electrophoresis). To be noted: ABT888 at 5-20 μM. Format: cell-based. Here is the method:
Post translational modifications of HSET in MDA-MB-231 breast cancer cells (FIG. 24B-I) were measured by the shifts in its isoelectric point (pI). […] Also, HSET is not modified in normal epithelial cells MCF10A. The vertical lines mark the point of loading of the proteins including HSET in the cell extracts. The arrows mark the shifted pI of HSET. In untreated MDA-MB-231 cells, the largest shift in pI of HSET was to pH 5.6 in the untreated MDA-MB-231 cells.

Chain of PARP-1 (P09874 whole entry, species assumed): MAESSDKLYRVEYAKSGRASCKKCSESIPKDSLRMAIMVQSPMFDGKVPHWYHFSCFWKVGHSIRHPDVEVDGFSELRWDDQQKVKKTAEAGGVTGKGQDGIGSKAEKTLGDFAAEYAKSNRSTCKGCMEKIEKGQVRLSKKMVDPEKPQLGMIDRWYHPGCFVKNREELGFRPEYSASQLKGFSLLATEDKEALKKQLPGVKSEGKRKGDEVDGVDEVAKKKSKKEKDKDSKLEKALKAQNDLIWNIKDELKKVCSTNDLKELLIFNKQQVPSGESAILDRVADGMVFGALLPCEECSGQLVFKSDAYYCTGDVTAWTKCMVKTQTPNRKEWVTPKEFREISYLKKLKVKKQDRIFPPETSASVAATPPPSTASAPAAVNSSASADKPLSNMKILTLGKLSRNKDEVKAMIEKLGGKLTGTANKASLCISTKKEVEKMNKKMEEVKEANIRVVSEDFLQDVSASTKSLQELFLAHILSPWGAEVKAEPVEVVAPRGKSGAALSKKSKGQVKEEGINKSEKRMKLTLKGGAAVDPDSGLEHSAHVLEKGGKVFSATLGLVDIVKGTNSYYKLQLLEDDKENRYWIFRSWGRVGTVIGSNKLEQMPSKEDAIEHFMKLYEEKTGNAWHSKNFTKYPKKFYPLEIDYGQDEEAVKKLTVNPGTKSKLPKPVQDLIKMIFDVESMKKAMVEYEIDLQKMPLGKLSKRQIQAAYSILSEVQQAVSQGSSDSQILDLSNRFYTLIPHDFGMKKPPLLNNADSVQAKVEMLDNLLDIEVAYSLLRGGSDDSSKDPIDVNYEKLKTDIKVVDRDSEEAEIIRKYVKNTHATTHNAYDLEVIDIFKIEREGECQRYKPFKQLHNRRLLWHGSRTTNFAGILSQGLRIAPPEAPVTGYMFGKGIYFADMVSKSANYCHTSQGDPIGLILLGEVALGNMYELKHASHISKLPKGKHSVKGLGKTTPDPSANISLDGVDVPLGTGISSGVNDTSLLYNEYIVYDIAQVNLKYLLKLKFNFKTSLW

In the case of `C[C@]1(c2nc3c(C(N)=O)cccc3[nH]2)CCCN1` [ABT888, reference compound], the “co-immunoprecipitation of α-tubulin with γ-tubulin” value in the series on α-tubulin with γ-tubulin is reported as “not”. Besides, the “binding of γ-tubulin to kinesin-14/HSET” value in [1] is given as “did not affect the binding”.

In the case of `CN(C)Cc1ccc(-c2nc3cccc4c3n2CCNC4=O)cc1` [AG14361, reference compound], the cells eradicated in the series with MCF-7 brca1+/+ cells is given as 50%. The Ki on PARP-1 (PARP-1) was under 5 nM.

For the molecule `O=C1CCC(=O)N1c1cc(Cc2n[nH]c(=O)c3ccccc23)ccc1F` [KU0058684], the “inhibition of CAPANI cells” value in series [2] is reported as “inhibited”.

Take `Cc1nc2c(O)cccc2c(=O)[nH]1` [NU1025]: the “inhibition of CAPANI cells” value in [2] is reported as “not inhibited”.

Consider `CN(C)CC(=O)Nc1ccc2[nH]c(=O)c3ccccc3c2c1` [PJ-34, N-(6-oxo-5,6-dihydro-phenanthridin-2-yl)-N,N-dimethylacetamide, HCl], for which the Tumor sizes in series [3] is 130 mm^3 and 150 mm^3. In addition, the “concentration at which PJ-34 acts as centrosomes de-clustering agent” value in series [4] is “above 20 microM”. Further, in [5] (3 months after 14-day osmotic pump treatment (Example 6)), the “viability, growth or behavior of the mice” value is “did not affect viability, growth or behavior”. Besides, the “vitality, growth, development, or any other behavior of treated mice” value in series [5] (14-day slow release of PJ-34, follow-up periods (Example 11)) was “did not affect the vitality, growth, development, or any other behavior”. Besides, the “survival of the other 3 treated mice” value in series [6] is “more than 4 months”. In addition, the “cytotoxicity in glioblastoma cancer cells” value (“cytotoxicity” for short) in the series with U-87 Glioblastoma cells is “cytotoxic in glioblastoma cancer cells at high concentrations”. The cell death entry in series [7] (48 hours after single application of 10-20 μM PJ-34) is on record as “more than 99.5%”. Further, the MCF-7 cells eradicated entry in series [7] (48 hours of incubation with 10 μM PJ-34) is listed as “More than 99%”.

Turning to `O=c1[nH]c2ccccc2c2ccccc12` [Phen, 6-(5H)-phenanthridinone], the “killing of MDA-MB-231 breast cancer cells” value in [8] is recorded as “efficient killing”. Also, the “impairment of quiescent cells” value in the series on cardiomyocytes is given as “not impaired at all”. Moreover, the “binding of γ-tubulin to kinesin-14/HSET” value in [1] is reported as “interfered with the binding”. Besides, the EC50 on PARP-1 is 120 nM. In the series on U-87 Glioblastoma cells, the “cytotoxicity” value is on record as “cytotoxic in glioblastoma cancer cells at high concentrations”. Besides, the “impairment of quiescent cells” value with brain cortical neurons was “not impaired at all”. In addition, in series [7], the MCF-7 survival result was “did not survive” and the “killing of MCF-7 cells” value was “efficient in killing MCF-7 cells”.

`O=c1[nH]c2sccc2c2ccccc12` [Tiq-A, 4H-thieno[2,3-c]isoquinolin-5-one]: the “effect of combination with MEK inhibitor U0126 versus each inhibitor alone” value in [9] is “synergistic effect”. In addition, the “post translational modification of HSET (pI shift)” value on HSET is reported as “prevent the post translational modification”. Moreover, the “killing of MDA-MB-231 breast cancer cells” value in series [8] is “efficient killing”. Moreover, the “impairment of quiescent cells” value in the series on cardiomyocytes is reported as “not impaired at all”. Further, in series [1], the “binding of γ-tubulin to kinesin-14/HSET” value is listed as “interfered with the binding”. Also, the EC50 at PARP-1 was 450 nM. The “cytotoxicity” value in the series with U-87 Glioblastoma cells was “cytotoxic in glioblastoma cancer cells at high concentrations”. Also, in the series on brain cortical neurons, the “impairment of quiescent cells” value is recorded as “not impaired at all”. In addition, in series [7], the MCF-7 survival result is “did not survive” and the “killing of MCF-7 cells” value was “efficient in killing MCF-7 cells”.
